Target: T1, human GPR68 (Homo sapiens, UniProt Q15743)
T1 construct: encoding full-length human GPR68 (uniprot ID: Q15743); expressed in transfected cells; host or cells: HEK293T
Assay: GPR68 Biochemical Assay (Promega GloSensor cAMP assay, GPR68 antagonism)
Assay type: cell-based
Details: HEK293T cells transiently expressing hGPR68, antagonism of pH 5.5 stimulated cAMP, 15 min, read-out: hGPR68 IC50
Experimental: GPR68 antagonism was determined using the Promega GloSensor™ CAMP assay (F. I. Wang et al., Methods 2021, S1046-2023 (21) 00249-8). HEK293T cells (obtained from ECACC, Cat 12022001, Lot no. 17E044) were cultured in T175 flasks (Greiner, Cat 660175) in DMEM (Gibco, Cat 11995-065) supplemented with 10% Fetal Bovine Serum (Gibco Cat 16000-044), and 100 u/mL Pen-Strep (Gibco, Cat 15140) at 37° C. and 5% CO2. GPR68 expression was achieved by transient transfection with a mammalian expression plasmid encoding full-length human GPR68 (uniprot ID: Q15743) under control of a CMV promoter. The day before transfection, cell media was aspirated and HEK293T cells were incubated with accutase (Sigma, Cat A6964) for 3-4 minutes 37° C. and 5% CO2 before being manually detached with excess DMEM and trituration. Cell density was determined by automated cell counting (Countess, Invitrogen) and adjusted to 6×10^6 cells/20 mL and transferred to 15 cm dishes (Thermo Fisher, Cat 130183) for overnight incubation at 37° C. and 5% CO2. The next day separate mammalian expression plasmids encoding hGPR68 (4 μg) and Promega GloSensor (8 μg) were diluted to 1 mL in Opti-MEM (Thermo Fisher Scientific, Cat 31985070) and incubated with 30 μL of lipofectamine 3000 (also diluted to 1 mL in Opti-MEM) for 15 minutes at room temperature and subsequently added dropwise to the plated cells. Post transfection cells were then incubated at 37° C. and 5% CO2 for at least 16 hours before transfer to assay plates the following day. Transfer was conducted by washing cells with PBS and incubating with accutase for 3-4 minutes 37° C. and 5% CO2 before being manually detached with excess DMEM and mild trituration. The suspension was then centrifuged at 192 RCF for 4 minutes in a 50 mL centrifuge tube (Greiner, Cat 227261).
Supernatant was removed by aspiration and the cell pellet was resuspended in DMEM+1% dialysed FBS (Gibco, Cat 26400-044) and 100 u/mL Pen-Strep to a cell density of 500 cells/μL. Cells were plated into poly-L-Lysine coated 384-well white assay plates (Corning, Cat 3570) at a final volume of 40 µL and a density of 20,000 cells/well before overnight incubation at 37° C. and 5% CO2. The following day media was manually ejected from the 384-well assay plate and replaced with 10 μL GloSensor substrate (Promega, Cat E1291) prepared in pH 8.0 assay buffer (1×HBSS, 10 mM HEPES, 10 mM MOPS). Cells were incubated with this solution for 60 minutes at room temperature in the dark. Test compounds or an equivalent volume of DMSO (vehicle) were added to compounds plates to create a 9-point, half-log concentration series for each compound with a maximum final assay concentration of 50 μM and a consistent final DMSO concentration of 0.5%. Assay buffer with 0.1% BSA and 0.01% ascorbic acid was prepared at three pHs: pH 8.0, pH 5.5 and pH 4.5. pH 8.0 and 4.5 were added to the compound plate as maximum and minimum effect controls whilst pH 5.5 was added to all compound wells to stimulate GPR68 to a level corresponding to […] of maximal stimulation after addition to the cells already in pH 8.0 (assay acceptance criteria range 70-90%). DMSO/Compound and buffer was added to the plated cells containing the GloSensor substrate and incubated for 15 minutes at room temperature before being read on a microplate reader (BMG PHERAstar, optic module LUM Plus with Gain 3600). Data was exported and analysed in excel and Graphpad prism (version 9). Assay QC acceptance criteria required the maximum and minimum controls to return a Z′≥0.5, the EC80 to be 80%±10% of expected and the reference ligand pIC50 to be within one-half-log unit of its historical IC50. Percent inhibition was calculated using the mean EC80 (pH 5.5) and mean minimum effect control (pH 8.0). Data were plotted as percentage inhibition, average±SEM. IC50, Emax, Emin, Actual max, actual min, R^2 and fit confidence were calculated using Graphpad Prism's sigmoidal dose-response function.

T1 sequence (Q15743 whole entry): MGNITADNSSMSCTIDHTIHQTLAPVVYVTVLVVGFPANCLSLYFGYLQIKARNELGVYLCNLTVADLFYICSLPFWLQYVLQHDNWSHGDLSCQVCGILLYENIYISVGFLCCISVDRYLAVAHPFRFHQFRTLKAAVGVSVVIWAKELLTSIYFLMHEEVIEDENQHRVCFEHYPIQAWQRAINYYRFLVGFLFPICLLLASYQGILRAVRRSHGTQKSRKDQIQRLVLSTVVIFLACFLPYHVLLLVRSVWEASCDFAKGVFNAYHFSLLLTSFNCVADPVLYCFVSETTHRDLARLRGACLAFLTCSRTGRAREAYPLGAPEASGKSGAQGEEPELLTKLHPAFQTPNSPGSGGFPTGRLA

COCc1nn2c(C(=O)NC3CCC(F)(F)CC3F)ccnc2c1C(N)=O (mixture of isomers) [Compound 154, 2-(methoxymethyl)-N7-(2,4,4-trifluorocyclohexyl)pyrazolo[1,5-a]pyrimidine-3,7-dicarboxamide]
IC50: 0.05 to 0.5 µM

COCc1nn2c(C(=O)N[C@@H]3Cc4ccccc4[C@@H]3O)ccnc2c1C(N)=O (relative stereo) [Compound 200, N7-(cis-1-hydroxyindan-2-yl)-2-(methoxymethyl)pyrazolo[1,5-a]pyrimidine-3,7-dicarboxamide]
IC50: < 0.05 µM

COCc1nn2c(C(=O)NC3Cc4cccnc4C3)ccnc2c1C(N)=O (single isomer, unassigned) [Compound 146, N7-(6,7-dihydro-5H-cyclopenta[b]pyridin-6-yl)-2-(methoxymethyl)pyrazolo[1,5-a]pyrimidine-3,7-dicarboxamide]
IC50: 0.05 to 0.5 µM

COCc1nn2c(C(=O)NC3Cc4cccnc4C3)ccnc2c1C(N)=O (single isomer, unassigned) [Compound 147, N7-(6,7-dihydro-5H-cyclopenta[b]pyridin-6-yl)-2-(methoxymethyl)pyrazolo[1,5-a]pyrimidine-3,7-dicarboxamide]
IC50: < 0.05 µM

COCc1nn2c(C(=O)NC3CC(F)(F)c4ccccc43)ccnc2c1C(N)=O (single isomer, unassigned) [Compound 173, N7-(3,3-difluoroindan-1-yl)-2-(methoxymethyl)pyrazolo[1,5-a]pyrimidine-3,7-dicarboxamide]
IC50: < 0.05 µM

COCc1nn2c(C(=O)NC3CC(F)(F)c4ccccc43)ccnc2c1C(N)=O (single isomer, unassigned) [Compound 174, N7-(3,3-difluoroindan-1-yl)-2-(methoxymethyl)pyrazolo[1,5-a]pyrimidine-3,7-dicarboxamide]
IC50: < 0.05 µM

COCc1nn2c(C(=O)NC3CCC(F)(F)c4ccccc43)ccnc2c1C(N)=O (single isomer, unassigned) [Compound 175, N7-[-4,4-difluorotetralin-1-yl]-2-(methoxymethyl)pyrazolo[1,5-a]pyrimidine-3,7-dicarboxamide]
IC50: < 0.05 µM

COCc1nn2c(C(=O)N[C@H]3CCS(=O)(=O)c4ccccc43)ccnc2c1C(N)=O (single isomer, unassigned) [Compound 234]
IC50: < 0.05 µM

NC(=O)c1cnn2c(C(=O)NC3Cc4ccccc4C3)ccnc12 [Compound 1, N7-indan-2-ylpyrazolo[1,5-a]pyrimidine-3,7-dicarboxamide]
IC50: 0.05 to 0.5 µM

Cc1cccc2c1CC(NC(=O)c1ccnc3c(C(N)=O)cnn13)C2 (stereo not drawn) [Compound 2, N7-(4-methylindan-2-yl)pyrazolo[1,5-a]pyrimidine-3,7-dicarboxamide]
IC50: 0.05 to 0.5 µM

COc1ccc2c(c1)CC(NC(=O)c1ccnc3c(C(N)=O)cnn13)C2 (stereo not drawn) [Compound 3, N7-(5-methoxyindan-2-yl)pyrazolo[1,5-a]pyrimidine-3,7-dicarboxamide]
IC50: 50 to 100 µM

NC(=O)c1cnn2c(C(=O)NC3Cc4cccc(Cl)c4C3)ccnc12 (stereo not drawn) [Compound 4, N7-(4-chloroindan-2-yl)pyrazolo[1,5-a]pyrimidine-3,7-dicarboxamide]
IC50: 0.05 to 0.5 µM

NC(=O)c1cnn2c(C(=O)NC3CNc4ccccc4C3)ccnc12 (stereo not drawn) [Compound 5, N7-(1,2,3,4-tetrahydroquinolin-3-yl)pyrazolo[1,5-a]pyrimidine-3,7-dicarboxamide]
IC50: 0.5 to 5 µM

NC(=O)c1cnn2c(C(=O)NC3COc4ccccc4C3)ccnc12 (stereo not drawn) [Compound 6, N7-chroman-3-ylpyrazolo[1,5-a]pyrimidine-3,7-dicarboxamide]
IC50: 0.05 to 0.5 µM

C[C@]1(F)C[C@H](NC(=O)c2ccnc3c(C(N)=O)cnn23)C1 [Compound 7, N7-(trans-3-fluoro-3-methyl-cyclobutyl)pyrazolo[1,5-a]pyrimidine-3,7-dicarboxamide]
IC50: 5 to 50 µM

C[C@]1(O)C[C@@H](NC(=O)c2ccnc3c(C(N)=O)cnn23)C1 [Compound 8, N7-(cis-3-hydroxy-3-methyl-cyclobutyl)pyrazolo[1,5-a]pyrimidine-3,7-dicarboxamide]
IC50: 5 to 50 µM

N#C[C@H]1C[C@@H](NC(=O)c2ccnc3c(C(N)=O)cnn23)C1 [Compound 9, N7-(cis-3-cyanocyclobutyl)pyrazolo[1,5-a]pyrimidine-3,7-dicarboxamide]
IC50: 0.5 to 5 µM

CCC1(CC)CC(NC(=O)c2ccnc3c(C(N)=O)cnn23)C1 [Compound 10, N7-(3,3-diethylcyclobutyl)pyrazolo[1,5-a]pyrimidine-3,7-dicarboxamide]
IC50: 50 to 100 µM

CO[C@H]1C[C@@H](NC(=O)c2ccnc3c(C(N)=O)cnn23)C1 [Compound 11, N7-(cis-3-methoxycyclobutyl)pyrazolo[1,5-a]pyrimidine-3,7-dicarboxamide]
IC50: 5 to 50 µM

NC(=O)c1cnn2c(C(=O)NC3CC4(CCOCC4)C3)ccnc12 [Compound 12, N7-(7-oxaspiro[3.5]nonan-2-yl)pyrazolo[1,5-a]pyrimidine-3,7-dicarboxamide]
IC50: 50 to 100 µM

NC(=O)c1cnn2c(C(=O)NC3CCc4ccncc4C3)ccnc12 (stereo not drawn) [Compound 13, N7-(5,6,7,8-tetrahydroisoquinolin-7-yl)pyrazolo[1,5-a]pyrimidine-3,7-dicarboxamide]
IC50: 50 to 100 µM

NC(=O)c1cnn2c(C(=O)NC3Cc4cccc(CCC(F)(F)F)c4C3)ccnc12 (stereo not drawn) [Compound 14, N7-[4-(3,3,3-trifluoropropyl)indan-2-yl]pyrazolo[1,5-a]pyrimidine-3,7-dicarboxamide]
IC50: 0.5 to 5 µM

NC(=O)c1cnn2c(C(=O)NC3Cc4cccc(Oc5ccc(Cl)cc5)c4C3)ccnc12 (stereo not drawn) [Compound 16, N7-[4-(4-chlorophenoxy)indan-2-yl]pyrazolo[1,5-a]pyrimidine-3,7-dicarboxamide]
IC50: 50 to 100 µM

NC(=O)c1cnn2c(C(=O)NC3Cc4cccc(-c5ccccn5)c4C3)ccnc12 (stereo not drawn) [Compound 17, N7-[4-(2-pyridyl)indan-2-yl]pyrazolo[1,5-a]pyrimidine-3,7-dicarboxamide]
IC50: 50 to 100 µM

NC(=O)c1cnn2c(C(=O)N[C@H]3C[C@@H](OC(F)(F)F)C3)ccnc12 [Compound 18, N7-[cis-3-(trifluoromethoxy)cyclobutyl]pyrazolo[1,5-a]pyrimidine-3,7-dicarboxamide]
IC50: 0.5 to 5 µM

NC(=O)c1cnn2c(C(=O)NC3Cc4nccn4C3)ccnc12 (stereo not drawn) [Compound 19, N7-(6,7-dihydro-5H-pyrrolo[1,2-a]imidazol-6-yl)pyrazolo[1,5-a]pyrimidine-3,7-dicarboxamide]
IC50: 5 to 50 µM

NC(=O)c1cnn2c(C(=O)NC3CNc4ncccc4C3)ccnc12 (stereo not drawn) [Compound 20, N7-(1,2,3,4-tetrahydro-1,8-naphthyridin-3-yl)pyrazolo[1,5-a]pyrimidine-3,7-dicarboxamide]
IC50: 5 to 50 µM

N#Cc1nn2c(C(=O)NC3Cc4ccccc4C3)ccnc2c1C(N)=O [Compound 21, 2-cyano-N7-indan-2-yl-pyrazolo[1,5-a]pyrimidine-3,7-dicarboxamide]
IC50: 0.05 to 0.5 µM

NC(=O)c1c(-c2cccnn2)nn2c(C(=O)NC3Cc4ccccc4C3)ccnc12 [Compound 22, N7-indan-2-yl-2-pyridazin-3-yl-pyrazolo[1,5-a]pyrimidine-3,7-dicarboxamide]
IC50: 0.5 to 5 µM

CN(C)CCNc1nn2c(C(=O)NC3Cc4ccccc4C3)ccnc2c1C(N)=O [Compound 23, 2-[2-(dimethylamino)ethylamino]-N7-indan-2-yl-pyrazolo[1,5-a]pyrimidine-3,7-dicarboxamide]
IC50: 50 to 100 µM

From US20260308159A1, “BICYCLIC HETEROARYLAMIDES HAVING GPR68 MODULATING ACTIVITY” (RECURSION PHARMACEUTICALS, INC., priority 2023, published 2026)
